According to patent publication US6849732B2, “Metalloproteinase inhibitors, pharmaceutical compositions containing them and their pharmaceutical uses, and methods and intermediates useful for their preparation” (Agouron Pharmaceuticals, Inc., priority 1995, dated 2005):
Where a name gives a salt, the structure may show the parent alone.

How the values were obtained:
Format in all cases: biochemical
[1] = molecular target: stromelysin (HSLN) (Homo sapiens, UniProt P08254); assay: MCA fluorogenic enzyme assay, competitive inhibition analysis (Ki,app), stromelysin; conditions: Ki,app; MCA peptide substrate, 37° C., pH 7.5; read-out: Enzyme Inhibition Constants (K1) HSLN
Chain of stromelysin (HSLN) (P08254 100-477): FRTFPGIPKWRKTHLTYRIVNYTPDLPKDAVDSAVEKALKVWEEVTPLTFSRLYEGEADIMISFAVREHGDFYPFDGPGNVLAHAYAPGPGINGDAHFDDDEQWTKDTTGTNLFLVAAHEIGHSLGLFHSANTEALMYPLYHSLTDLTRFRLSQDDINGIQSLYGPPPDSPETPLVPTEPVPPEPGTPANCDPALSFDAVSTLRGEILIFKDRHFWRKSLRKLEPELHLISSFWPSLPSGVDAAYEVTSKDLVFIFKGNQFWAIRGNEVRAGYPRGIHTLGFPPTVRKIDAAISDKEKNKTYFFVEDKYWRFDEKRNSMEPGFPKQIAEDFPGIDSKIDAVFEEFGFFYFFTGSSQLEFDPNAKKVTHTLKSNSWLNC

[2] = molecular target: T1, gelatinase A (HG72kD) (Homo sapiens, UniProt P08253); assay: MCA fluorogenic enzyme assay, competitive inhibition analysis (Ki,app), gelatinase A; conditions: MCA peptide substrate, 37° C., pH 7.5, read-out: Enzyme Inhibition Constants (K1) HG72kD
T1 sequence (P08253 110-660): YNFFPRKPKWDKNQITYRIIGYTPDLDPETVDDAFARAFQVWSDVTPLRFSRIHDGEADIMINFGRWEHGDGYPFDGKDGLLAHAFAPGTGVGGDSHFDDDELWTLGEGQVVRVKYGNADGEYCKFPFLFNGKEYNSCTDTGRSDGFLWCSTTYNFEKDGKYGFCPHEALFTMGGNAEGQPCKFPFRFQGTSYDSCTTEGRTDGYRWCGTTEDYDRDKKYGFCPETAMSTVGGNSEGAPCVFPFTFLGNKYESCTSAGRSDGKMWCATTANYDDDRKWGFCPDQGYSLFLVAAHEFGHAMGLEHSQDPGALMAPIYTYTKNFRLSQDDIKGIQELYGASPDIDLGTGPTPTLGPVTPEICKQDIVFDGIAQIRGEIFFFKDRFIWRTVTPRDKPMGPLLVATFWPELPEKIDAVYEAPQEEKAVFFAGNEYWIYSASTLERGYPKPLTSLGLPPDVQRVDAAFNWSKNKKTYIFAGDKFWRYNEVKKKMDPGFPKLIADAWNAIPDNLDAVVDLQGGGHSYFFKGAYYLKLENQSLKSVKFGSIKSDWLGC

[3] = molecular target: T2, matrilysin (Matr.) (Homo sapiens, UniProt P09237); assay: MCA fluorogenic enzyme assay, competitive inhibition analysis (Ki,app), matrilysin; conditions: MCA peptide substrate, 37° C., pH 7.5, read-out: Enzyme Inhibition Constants (K1) Matr.
T2 sequence (P09237 95-267): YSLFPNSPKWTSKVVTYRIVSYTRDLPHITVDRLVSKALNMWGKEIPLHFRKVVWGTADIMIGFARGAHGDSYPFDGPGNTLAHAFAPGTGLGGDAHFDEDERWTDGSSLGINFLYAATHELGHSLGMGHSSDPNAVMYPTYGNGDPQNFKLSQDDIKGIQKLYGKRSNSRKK
Procedure: Stromelysin enzymatic activity was measured using a modified version of a resonance energy transfer fluorogenic assay as described in FEBS, vol. 296(3), p. 263 (1992), the disclosure of which is incorporated herein by reference. The MCA-peptide substrate is shown below. The fluorescent MCA group is quenched by resonance energy transfer to the 2,4-dinitrophenyl group. Matrix metalloproteinases cleave this substrate at the Gly-Leu bond. Cleavage results in the loss of energy transfer and a large increase in fluorescence of the MCA group. [drawing 56] 7-methoxycoumarin-4-yl-acetyl-pro-leu-gly-leu-3-(2,4-dinitrophenyl)-L-2,3-diaminoproprionyl-ala-arg-NH2
The MCA assay was performed at 37° C. in buffer containing 50 mM Tricine (pH 7.5), 10 mM CaCl2, 200 mM NaCl, and 1% DMSO with the following concentrations of matrix metalloproteinases: 1.4 nM stromelyin, 0.063 nM matrilysin, and 0.030 nM gelatinase A. The concentration of MCA substrate was 10 or 20 μM in a final volume of 1.6 mL. Fluorescence data was collected with Perkin-Elmer LS-5B and LS-5B spectrofluorimeters with λexcitation=328 nm and λemission=393 nm. Spectrofluorimeters were interfaced with IBM-compatible microcomputer systems.
The Km for the MCA peptide substrate with the matrix metalloproteinases is quite high and exceeds its solubility under assay conditions. Consequently, the apparent Ki (Ki,app) was determined to describe the strength of inhibition. However, in this case, Ki,app would be essentially equal to Ki since [S]<<Km. For the determination of Ki,app, the concentration of the inhibitor was varied at a constant and low concentration of substrate and the steady-state rates of fluorescence change determined. In most cases absorptive quench due to the presence of ligand was not observed. For slow-binding inhibitors, onset of inhibition curves were collected for at least 45 minutes so that equilibrium was established. Steady-state rates of fluorescence change were obtained by fitting a curve to an equation for a single exponential decay containing a linear phase. The fitted value of the linear phase was taken as the steady-state rate. The steady-state rates were fitted to the Michaelis equation describing competitive inhibition by non-linear methods. Data resulting from tight-binding inhibition was analyzed, and Ki,app determined by fitting the data to the tight-binding equation of Morrison See (Biochem. Biophys. Acta, vol. 185, pp. 269-286 (1969)) by non-linear methods.

[4] = molecular target: T3, HFC (Homo sapiens, UniProt P03956); assay: MCA fluorogenic enzyme assay, competitive inhibition analysis (Ki,app), HFC; conditions: MCA peptide substrate, 37° C., pH 7.5, read-out: Enzyme Inhibition Constants (K1) HFC
T3 sequence (P03956 100-469): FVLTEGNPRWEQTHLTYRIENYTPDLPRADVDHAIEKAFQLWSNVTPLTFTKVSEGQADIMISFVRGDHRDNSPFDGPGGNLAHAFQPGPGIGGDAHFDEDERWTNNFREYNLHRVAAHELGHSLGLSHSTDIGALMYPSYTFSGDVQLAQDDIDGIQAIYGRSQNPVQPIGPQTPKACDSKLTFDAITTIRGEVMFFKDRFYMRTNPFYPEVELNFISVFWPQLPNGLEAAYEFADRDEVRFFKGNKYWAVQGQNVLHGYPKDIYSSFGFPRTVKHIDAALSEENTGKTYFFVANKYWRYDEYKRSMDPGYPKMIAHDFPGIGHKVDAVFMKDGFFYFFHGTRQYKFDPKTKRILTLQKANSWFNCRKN

[5] = molecular target: Coll3 (Homo sapiens, UniProt P45452); assay: MCA fluorogenic enzyme assay, competitive inhibition analysis (Ki,app), Coll3; conditions: MCA peptide substrate, 37° C., pH 7.5, read-out: Enzyme Inhibition Constants (K1) Coll3

Row | Molecule | Ki [1] [nM] | Ki [2] [nM] | Ki [4] [nM] | Ki [5] [nM] | Ki [3] [nM]
1 | CNC(=O)N1CCN(S(=O)(=O)c2ccc(Oc3ccc(Cl)cc3)cc2)C(C(=O)NO)C1 (racemic) [Example 6(a), 2(R/S)-N-hydroxy-1-(4-(4-chlorophenoxy)benzenesulfonyl)-4-(N-methylcarbamoyl)-piperazine-2-carboxamide] | 0.406 | 0.034 |  | 0.016 | 109
2 | CC(C)(C)OC(=O)N1CCN(S(=O)(=O)c2ccc(Oc3ccc(C#N)cc3)cc2)C(C(=O)NO)C1 (racemic) [Example 9(c), 2(R/S)-N-hydroxy-1-(4-(4-cyanophenoxy)benzenesulfonyl)-4-(t-butoxycarbonyl)-piperazine-2-carboxamide] | 14 | 0.696 | 580 | 1.97 | 3570
3 | CC(C)(C)OC(=O)N1CCN(S(=O)(=O)c2ccc(Oc3ccccn3)cc2)C(C(=O)NO)C1 (racemic) [Example 9(d), 2(R/S)-N-hydroxy-1-(4-(pyrid-2-yl)oxybenzenesulfonyl)-4-(t-butoxycarbonyl)-piperazine-2-carboxamide] | 17 | 0.716 | 550 | 1.64 | 2850
4 | COc1ccc(Oc2ccc(S(=O)(=O)N3CCN(S(C)(=O)=O)CC3C(=O)NO)cc2)cc1 (racemic) [Example 12(c)] | 0.19 |  | 16 |  | 74
5 | O=C(NO)C1CSCCN1S(=O)(=O)c1ccc(Oc2ccc(Br)cc2)cc1 (racemic) [Example 13(a), 3(R/S)-N-hydroxy4-(4-bromophenoxybenzenesulfonyl)-tetrahydro-2H-1,4-thiazine-3-carboxamide] | 0.333 | 0.04 |  |  | 169
6 | O=C(NO)[C@@H]1C[S@+]([O-])CCN1S(=O)(=O)c1ccc(Oc2ccc(Br)cc2)cc1 (racemic) [Example 14(a), 1(R/S),3(R/S)-N-hydroxy-1-oxo-4-(4-(4-bromophenoxy)benzene-sulfonyl)-tetrahydro-2H-1,4-thiazine-3-carboxamide] | 0.41 | 0.013 | 23 | 0.017 | 109
7 | CC1(C)SCCN(S(=O)(=O)c2ccc(Oc3ccc(Cl)cc3)cc2)[C@H]1C(=O)NO [Example 3(b), 3(S)-N-hydroxy4-(4-(4-chlorophenoxy)benzenesulfonyl)-2,2-dimethyl-tetrahydro-2H-1,4-thiazine-3-carboxamide] | 0.059 | 0.017 | 1.3 | 0.001 | 
8 | CC(C)(C)OC(=O)N1CCN(S(=O)(=O)c2ccc(Oc3ccc(F)cc3)cc2)[C@@H](C(=O)NO)C1 [Example 9(b), 2(R)-N-hydroxy-1-(4-(4-fluorophenoxy)benzenesulfonyl)-4-(t-butoxycarbonyl)-piperazine-2-carboxamide] | 0.49 | 0.026 | 18 |  | 220
9 | CN1CCN(S(=O)(=O)c2ccc(Oc3ccccc3)cc2)[C@@H](C(=O)NO)C1 [Example 11(b), 2(R)-N-hydroxy-1-(4-phenoxybenzenesulfonyl)-4-methyl-piperazine-2-carboxamide] | 6.3 | 0.101 |  | 0.158 | 2180
10 | CCOC(=O)CN1CCN(S(=O)(=O)c2ccc(Oc3ccc(Cl)cc3)cc2)[C@@H](C(=O)NO)C1 [Example 11(c), 2(R)-N-hydroxy-1-(4-(4-chlorophenoxy)benzenesulfonyl)-4-(ethoxycarbonylmethyl)-piperazine-2-carboxamide hydrochloride] | 0.25 |  | 48 |  | 240

More lines, main results first:

Row | Ki [1] [nM] | Ki [2] [nM] | Ki [4] [nM] | Ki [5] [nM] | Molecule | Ki [3] [nM]
11 | 0.06 | 0.0017 | 1.4 | 0.002 | 3(S)-4-(4-(4-(furan-3-yl)phenoxy)benzenesulfonyl-N-hydroxy-tetrahydro-2H-1,4-thiazine-3-carboxamide [Example 20] | 0.7
12 | 0.647 | 0.025 |  | 0.029 | O=C(NO)C1CSCCN1S(=O)(=O)c1ccc(Oc2ccccc2)cc1 (racemic) [Example 13(b), 3(R/S)-N-hydroxy-4-(4-phenoxybenzenesulfonyl)-tetrahydro-2H-1,4-thiazine-3-carboxamide] | 201
13 | 0.53 | 0.028 | 40 | 0.035 | O=C(NO)C1CSCCN1S(=O)(=O)c1ccc(Oc2ccc(F)cc2)cc1 (racemic) [Example 13(c), 3(R/S)-N-hydroxy-4-(4-(4-fluorophenoxy)benzenesulfonyl)-tetrahydro-2H-1,4-thiazine-3-carboxamide] | 313
14 | 0.84 | 0.066 | 5.9 | 0.068 | CC1(C)NC(=O)CN(S(=O)(=O)c2ccc(Oc3ccc(F)cc3)cc2)C1C(=O)NO (racemic) [Example 21, 2(R/S)-1-[4-(4-fluorophenoxy)benzenesulfonyl]-3,3-dimethyl-N-hydroxy-5-oxo-piperazine-2-carboxamide] | 
15 | 4.4 | 0.077 |  | 0.088 | CC(=O)N1CCCN(S(=O)(=O)c2ccc(Oc3ccc(F)cc3)cc2)C1C(=O)NO (racemic) [Example 22, 2(R/S)-3-acetyl-1-4-(4-fluorophenoxy)benzenesulfonyl-N-hydroxy-hexahydropyrimidine-2-carboxamide] | 
16 | 1.4 | 0.094 | 32 | 0.13 | CC1(C)[C@H](C(=O)NO)N(S(=O)(=O)c2ccc(Oc3ccncc3)cc2)CC[S@@+]1[O-] (single isomer, unassigned; isomer 1) [Example 19(a), 1(R), 3(S) isomer] | 
17 | 5.1 | 0.152 | 187 |  | O=C1C[C@H](C(=O)NO)N(S(=O)(=O)c2ccc(Oc3ccc(F)cc3)cc2)CN1 [Example 15(b), 6(R)-(N-hydroxycarbamoyl)-1-(4-(4-fluorophenoxy)benzene-sulfonyl)-tetrahydropyrimidin-4-one] | 1840
18 | 2.3 | 0.49 | 31 | 0.16 | CC1(C)[C@H](C(=O)NO)N(S(=O)(=O)c2ccc(Oc3ccncc3)cc2)CC[S@+]1[O-] [Example 19(a), 1(S), 3(S) isomer, 1(S), 3(S)-N-hydroxy-4-(4-((pyrid-4-yl)oxy)benzenesulfonyl)-2,2-dimethyl-1-oxotetrahydro-2H-1,4-thiazine-3-carboxamide] | 
